Experimental data reported in patent US11413278B2, “Compounds and methods for promoting stress resistance” (priority 2015, dated 2022).
Entries after “also recorded” stand apart in the source; their conditions may differ. Read-outs that look alike come from different tables or passages of the source.

What was measured:
[1] = test system: FOXO3; assay: qPCR analysis of FOXO3-regulated genes; format: cell-based, human; conditions: for fold induction at 10 µM: Homo sapiens; for K = Sestrin induction: score
How it was run: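 FOXO3 target-gene expression quantified by qPCR normalised to B2M, PPIA and GAPDH, in WI-38 cells after 24 h exposure to 10 μM compound. Some runs used cells first transfected 36 h with 10 nM FOXO3 or NRF2 siRNA and replated ~24 h before dosing.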

[2] = test system: WI-38 cells; conditions: for No H2O2 stress treatment, at 10 uM (fold change): normalized ATP measurement; for Assay 1: H2O2-resistant: YES/NO, if NO, possibly due to repeated freezing/thawing of stocks
[3] = test system: human dermal fibroblast (HDF) primary cells; assay: H2O2-resistance in primary human dermal fibroblasts; format: cell-based; conditions: for fold induction at 10 µM: Homo sapiens; for Assay 6: H2O2-resistant, at 10 uM, human dermal fibroblast (HDF) primary cells: YES/NO
[4] = test system: C. elegans; format: in vivo, Caenorhabditis elegans; conditions: in vivo
How it was run: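 Survival under oxidative stress: 500 μM H2O2 (final) was added to day-4 adults kept in liquid with compounds, FUdR present, 4 wells per molecule and 0.2% DMSO controls, with daily scoring of viability.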

[5] = Summary score for characterization of 38 core set hits; conditions: for D = Triple resistant: 2-point score, multiplex resistance (cadmium, MMS, H2O2); for S = Sum of Negative scores: human; for C = H2O2- & Cd-resistant: score, resistance to both H2O2 and cadmium
How it was run: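 First, H2O2-resistance screen hits were characterized for longevity-related phenotypes, and each major one (multiplex resistance, FOXO3/NRF2 activation, mTOR down-regulation) received 2 points. Next, C. elegans lifespan extension was scored 0 to 2 from 4 to 6 trials. Finally, human-cell genotoxicity or toxicity subtracted a point.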

[6] = test system: WI-38 cells; assay: Propidium iodide (PI) cell-death imaging upon H2O2 stress; format: cell-based, human; conditions: for Assay 7: H2O2-resistant, at 10 uM, validated by propidium iodide (PI) cell-death imaging: w/H2O2, 3 hrs/4 hrs/5 hrs, YES/NO; for cytotoxicity at 10 µM: Homo sapiens, WI-38
[7] = 24 h, Assay 10(m), at 10 uM, qPCR, read-out: Induction of FOXO3-regulated genes: CAT normalized fold-change
[8] = 24 h, Assay 10(m), at 10 uM, qPCR, read-out: Induction of FOXO3-regulated genes: SESN1 normalized fold-change
[9] = 24 h, Assay 10(m), at 10 uM, qPCR, read-out: Induction of FOXO3-regulated genes: TXNIP normalized fold-change
[10] = 10 μM, 24 hrs, WI-38 cells, qPCR, normalized to B2M, n = 4, read-out: CAT expression, normalized fold change (FOXO3-regulated gene)
[11] = 10 μM, 24 hrs, WI-38 cells, qPCR, normalized to B2M, n = 4, read-out: SESN1 expression, normalized fold change (FOXO3-regulated gene)
[12] = 10 μM, 24 hrs, WI-38 cells, qPCR, normalized to B2M, n = 4, read-out: TXNIP expression, normalized fold change (FOXO3-regulated gene)
[13] = WI-38 cells, 10 μM, 24 hrs, n=4, qPCR normalized by B2M, read-out: DDB1 Normalized fold change
[14] = WI-38 cells, 10 μM, 24 hrs, n=4, qPCR normalized by B2M, read-out: GADD45A Normalized fold change
[15] = WI-38 cells, 10 μM, 24 hrs, n=4, qPCR normalized by B2M, read-out: SESN1 Normalized fold change
[16] = fold change, qPCR, WI-38 cells, 10 μM, 24 hrs, read-out: Summary of effects on FOXO3-regulated genes: CAT
[17] = fold change, qPCR, WI-38 cells, 10 μM, 24 hrs, read-out: Summary of effects on FOXO3-regulated genes: SESN1
[18] = fold change, qPCR, WI-38 cells, 10 μM, 24 hrs, read-out: Summary of effects on FOXO3-regulated genes: TXNIP
[19] = qPCR, WI-38 cells, 10 μM, n=4, 24 hrs, normalized by B2M, read-out: CAT Normalized fold change
[20] = qPCR, WI-38 cells, 10 μM, n=4, 24 hrs, normalized by B2M, read-out: SOD2 Normalized fold change
[21] = qPCR, WI-38 cells, 10 μM, n=4, 24 hrs, normalized by B2M, read-out: TXNIP Normalized fold change
[22] = WI-38 cells, 10 μM, (*) = compromised ability to protect cells from H2O2, could be due to stability issue
[23] = asterisks indicate the loss of the ability to protect cells from H2O2 over time
[24] = derived from dose response curves, 0.6-20 uM, H2O2-resistance of WI-38 cells
[25] = read-out: Est. ED50, dose response 0.6-20 μM, H2O2-resistance
[26] = Experiment 1, HDF cells, read-out: Experiment 1, HDF cells (under H2O2 stress treatment), at 10 uM (fold change)
[27] = Experiment 2, HDF cells, read-out: Experiment 2, HDF cells (under H2O2 stress treatment), at 10 uM (fold change)
[28] = H2O2 3 hrs, 10 uM, n = 6, negative control 5.44% ± 0.79%, read-out: Percentage of propidium iodide-positive dead cells (under H2O2 stress treatment), 3 hrs
[29] = pre-treatment at 10 uM, 3.5 hours of H2O2, DMSO control 27.4% ± 6.5%, */**/*** = reduced by one/two/three standard deviations, read-out: Percentage of propidium iodide-positive dead cells (under H2O2 stress treatment), at 10 uM

Compound | E = Potential FOXO3 Activation ([1]; 2-point score) | fold induction at 10 µM [1, 7] | fold induction at 10 µM [1, 8] | fold induction at 10 µM [1, 9] | fold induction at 10 µM [1, 10] | fold induction at 10 µM [1, 11] | fold induction at 10 µM [1, 12] | fold induction at 10 µM [1, 13] | fold induction at 10 µM [1, 14] | fold induction at 10 µM [1, 15] | fold induction at 10 µM [1, 16] | fold induction at 10 µM [1, 17] | fold induction at 10 µM [1, 18] | fold induction at 10 µM [1, 19] | fold induction at 10 µM [1, 20] | fold induction at 10 µM [1, 21] | K = Sestrin induction [1] | E = Potential FOXO3 Activation ([1]; summary score) | H2O2-resistant [2, 22] | No H2O2 stress treatment, at 10 uM (fold change) ([2]; WI-38 cells) | other results
O=[N+]([O-])c1ccccc1S(=O)(=O)Nc1cccc2cccnc12 [Gr-3A] | 0 | 0.83 | 1.21 | 0.64 | 0.87 | 1.18 | 0.75 | 0.969 | 1.4 | 1.18 | 0.87 | 1.18 | 0.75 | 0.871 | 1.48 | 0.754 | 0 | 0 | YES | 0.98 fold change | fold induction at 10 µM ([1]; 24 h, Assay 10(m), at 10 uM, qPCR, read-out: Induction of FOXO3-regulated genes: DDB1 normalized fold-change): 0.81; Assay 1: H2O2-resistant [2]: YES; H2O2-resistant [2, 23]: YES; EC50 [2, 24]: 11.2 µM; EC50 [2, 25]: 4.21 µM; fold induction at 10 µM [3, 26]: 2.38; fold induction at 10 µM [3, 27]: 1.67; Assay 6: H2O2-resistant, at 10 uM, human dermal fibroblast (HDF) primary cells [3]: YES; L = H2O2-resistance in worms [4]: 0; N = H2O2-resistance in woms [4]: 0; D = Triple resistant [5]: 0; S = Sum of Negative scores [5]: 1; C = H2O2- & Cd-resistant [5]: 1; Assay 7: H2O2-resistant, at 10 uM, validated by propidium iodide (PI) cell-death imaging ([6]; 10 uM): YES; cytotoxicity at 10 µM [6, 28]: 5.54%; cytotoxicity at 10 µM [6, 29]: 12.4%
O=C(Nc1cccc(C(F)(F)F)c1)c1ccc([N+](=O)[O-])o1 [Gr-1E] | 0 | 1.38 | 1.34 | 1.33 | 1.45 | 1.4 | 2.02 | 1.39 | 0.752 | 1.4 | 1.45 | 1.4 | 2.02 | 1.45 | 1.46 | 2.02 | 0 | 0 | YES | 0.96 fold change | Induction of at least two of five FOXO3-regulated genes (SOD2, GADD45A, CAT, DDB1, TXNIP) ([1]; 10 μM, 24 hrs, WI-38): significant induction; also recorded: significant, induction; fold induction at 10 µM ([1]; 24 h, Assay 10(m), at 10 uM, qPCR, read-out: Induction of FOXO3-regulated genes: GADD45A normalized fold-change): 0.62; Assay 1: H2O2-resistant [2]: YES; H2O2-resistant [2, 23]: YES; EC50 [2, 24]: 3.7 µM; EC50 [2, 25]: 2.76 µM; fold induction at 10 µM [3, 26]: 1.4; fold induction at 10 µM [3, 27]: 31; Assay 6: H2O2-resistant, at 10 uM, human dermal fibroblast (HDF) primary cells [3]: YES; L = H2O2-resistance in worms [4]: 0; N = H2O2-resistance in woms [4]: 0; D = Triple resistant [5]: 0; S = Sum of Negative scores [5]: 0; C = H2O2- & Cd-resistant [5]: 1; Assay 7: H2O2-resistant, at 10 uM, validated by propidium iodide (PI) cell-death imaging ([6]; 10 uM): YES; cytotoxicity at 10 µM [6, 28]: 1.68%; cytotoxicity at 10 µM ([6]; H2O2 4 hrs, 10 uM, n = 6, negative control 16.81% ± 1.42%, read-out: Percentage of propidium iodide-positive dead cells (under H2O2 stress treatment), 4 hrs): 2.95%; cytotoxicity at 10 µM ([6]; H2O2 5 hrs, 10 uM, n = 6, negative control 22.50% ± 1.53%, read-out: Percentage of propidium iodide-positive dead cells (under H2O2 stress treatment), 5 hrs): 3.44%; cytotoxicity at 10 µM [6, 29]: 18.8%
